Read-outs that look alike come from different tables or passages of the source.
Experiments:
[1] = tested on: carrageenin-induced edema in the hind paw of a rat; assay: Carrageenin Assay (carrageenin-induced edema, hind paw); assay type: in vivo, rat (male, Long Evans strain); conditions: Rattus norvegicus, 1 h before carrageenin, edema at 3 h, compared to phenylbutazone control values, read-out: % Reduction of Edema; for inhibition in vivo at 200 mg/kg: 200 mg/kg oral
Description: The procedure employed is a modification of the method of Winter et al, Proc. Soc. Exptl. Biol. Med. 111:544 (1962). The device used for measurement of the paw volume is an adaptation of the water displacement procedure described by Adamkiewicz et al, Can. J. Biochem. Physiol. 33:332 (1955). Test compounds were administered orally, one hour prior to the intraplantar injection of 0.05 ml. of sterile 1.0 percent solution of carrageenin into the left hind paw of male rats (Long Evans strain) weighing between about 130-200 grams. At peak swelling time (3 hours) the volume of edema was calculated by differential paw volumes.
Table I sets forth the results obtained (indicated as percent reduction of edema compared to phenylbutazone control values) at the indicated dosages for each of the identified compounds.

[2] = tested on: phenylquinone writhing in mice; assay: Phenylquinone Writhing Assay (analgesia); assay type: in vivo, mouse (Carworth CF1 male mice); conditions: Mus musculus, po, read-out: Phenylquinone Writhing Assay (% Control), percent analgesia; for responders at 100 mg/kg: 100 mg/kg oral; for responders at 30 mg/kg: 30 mg/kg oral; for responders at 50 mg/kg: 50 mg/kg oral; for responders at 25 mg/kg: 25 mg/kg oral
Description: The phenylquinone writhing test was employed to evaluate analgesic activity according to the following procedure:
Phenylquinone (phenyl-p-benzoquinone, No. 7104, Eastman Organic Chemicals) is made up as a 0.02% aqueous solution in 5% ethyl alcohol. Phenylquinone solutions are made up fresh twice daily. Standard reference agents and the test compounds are dissolved or suspended in a 0.25% methylcellulose solution. A control group consisting of ten mice (Carworth CF1 male mice) are administered the 0.02% phenylquinone solution at a dose of 0.25 ml/mouse. The mice are housed individually and observed closely for ten minutes for exhibition of writhing. The onset of writhing occurs within three minutes and 100% of the mice must writhe within ten minutes. Test compounds are administered orally to groups of ten mice. The volume given is 0.01 ml/gram of body weight. Activity can be studied at 15, 30, 60, and 120 minutes after oral administration. After the designated time interval of a dose group has elapsed, the mice are challenged with phenylquinone intraperitoneally. Complete blocking of the writhing syndrom for the ten minute observation period in any one mouse is considered a positive analgesic response for that mouse. Conversely, if any mouse writhes definitely once it is considered not to be protected. The number of mice not writhing in group multiplied by ten equals percent analgesia for that dose at that time interval.

[3] = tested on: central nervous system activity in mice; assay: Neuropharmacological Profile; assay type: in vivo, mouse (white male Carworth Farm Strain CF-1)
Description: The central nervous system activity of certain of the preferred compounds in accordance with the present invention were determined using the following neuropharmacological profile assay procedures.
White male mice of the Carworth Farm Strain (CF-1) weighing 18-22 grams were used in these determinations. […] Intraperitoneal injections were administered in logarithmic progression and sequentially. The dose levels employed routinely are 10, 30, 100, and 300 mg/kg, using four male mice at each dose level. Since this test was conducted in a sequential manner, the first dose administered was at 300 mg/kg. The mice were injected at this dose level and observed for gross changes produced by the drug, such as behavioral, neurological, autonomic, and toxic effects.
The animals were observed continuously for one hour and if no signs of pharmacological or toxicological activity were present at the end of the first hour, they were intermittently checked for activity every fifteen minutes thereafter for two consecutive hours. […] Subsequent dose levels below 300 mg/kg were not administered in this case. Alternatively, if demonstrable pharmacological changes occurred within the first three hours after administration of the drug at 300 mg/kg, the subsequent doses were administered and the animals observed for changes in overt behavior. The observation period begins immediately following the injection and the animals are then continuously observed for three hours and intermittently checked thereafter for forty-eight hours. The animals were observed and signs and symptoms of pharmacological activity were recorded continuously until no further symptoms developed and until the symptoms that had appeared were no longer present. […] It was very important that the animals were free to move about for evaluation of spacial orientation, alertness, and spontaneous motor activity. The animals were systematically observed and manipulated to measure the onset, peak effect, duration and character of drug action.
The major characteristics observed relative to central nervous system activity for the compounds indicated are summarized in the following Table IV.

[4] = 300,100,30 mg/kg intraperitoneal

C=CCOc1nnc(C)c(C)n1 [Example 11, 3-allyloxy-5,6-dimethyl-1,2,4-triazine]
inhibition in vivo at 200 mg/kg [1]: 63% | responders at 100 mg/kg ([2]; 0.5 h, 30 Min.): 30% | CNS Activity ([3]; 300,100 mg/kg intraperitoneal): Hypnotic

CSc1nncc(-c2cccc(C(F)(F)F)c2)n1 [Example 19, 3-methylthio-5-(3'-trifluoromethylphenyl)-1,2,4-triazine]
inhibition in vivo at 200 mg/kg [1]: 51% | responders at 30 mg/kg ([2]; 0.5 h, 30 Min.): 20% | CNS Activity ([3]; 300,100,30,10,3 mg/kg intraperitoneal): Sedative

OCCNc1nncc(-c2ccccc2)n1 [Example 28, 3-B-hydroxyethyl amino-5-phenyl-1,2,4-triazine]
inhibition in vivo at 200 mg/kg [1]: 43% | responders at 100 mg/kg ([2]; 0.25 h, 15 Min.): 30% | responders at 100 mg/kg ([2]; 0.5 h, 30 Min.): 10% | responders at 100 mg/kg ([2]; 1 h, 60 Min): 10%

COc1nncc(-c2cccc3ccccc23)n1 [Example 29, 3-methoxy-5-(1'-naphthyl)-1,2,4-triazine]
inhibition in vivo at 200 mg/kg [1]: 22% | responders at 30 mg/kg ([2]; 0.25 h, 15 Min.): 10% | responders at 100 mg/kg ([2]; 0.25 h, 15 Min.): 10% | responders at 50 mg/kg ([2]; 0.5 h, 30 Min.): 10%

CCCOc1nncc(-c2ccccc2)n1 [Example 31, 3-n-propoxy-5-phenyl-1,2,4-triazine]
inhibition in vivo at 200 mg/kg [1]: 51% | responders at 100 mg/kg ([2]; 0.25 h, 15 Min.): 10%

COc1cc(-c2cnnc(SC)n2)ccc1O [Example 32, 3-methylthio-5-(3'-methoxy-4'-hydroxyphenyl)-1,2,4-triazine]
inhibition in vivo at 200 mg/kg [1]: 5% | responders at 100 mg/kg ([2]; 0.25 h, 15 Min.): 30% | responders at 100 mg/kg ([2]; 0.5 h, 30 Min.): 10% | responders at 100 mg/kg ([2]; 1 h, 60 Min): 10%

CSc1nncc(C23CC4CC(CC(C4)C2)C3)n1 [Example 34, 3-methylthio-5-(1'-adamantyl)-1,2,4-triazine]
inhibition in vivo at 200 mg/kg [1]: 17% | responders at 100 mg/kg ([2]; 0.25 h, 15 Min.): 30% | responders at 100 mg/kg ([2]; 0.5 h, 30 Min.): 10%

CSc1nncc(-c2cc3ccccc3o2)n1 [Example 35, 3-methylthio-5-(2'-benzofuryl)-1,2,4-triazine]
inhibition in vivo at 200 mg/kg [1]: 2% | responders at 100 mg/kg ([2]; 0.25 h, 15 Min.): 10% | responders at 100 mg/kg ([2]; 0.5 h, 30 Min.): 10% | responders at 100 mg/kg ([2]; 1 h, 60 Min): 10%

CSc1nncc(C2CC2)n1 [Example 37, 3-methylthio-5-cyclopropyl-1,2,4-triazine]
inhibition in vivo at 200 mg/kg [1]: 86% | responders at 100 mg/kg ([2]; 0.25 h, 15 Min.): 20%

COc1nncc(-c2ccc(OC)c(OC)c2)n1 [Example 38, 3-methoxy-5-(3',4'-dimethoxyphenyl)-1,2,4-triazine]
inhibition in vivo at 200 mg/kg [1]: 52% | responders at 100 mg/kg ([2]; 0.5 h, 30 Min.): 20% | responders at 100 mg/kg ([2]; 1 h, 60 Min): 10%

CSc1nncc(-c2c(C)cc(C)cc2C)n1 [Example 39, 3-methylthio-5-(2',4',6'-trimethylphenyl)-1,2,4-triazine]
inhibition in vivo at 200 mg/kg [1]: 7% | responders at 100 mg/kg ([2]; 0.25 h, 15 Min.): 10% | responders at 100 mg/kg ([2]; 1 h, 60 Min): 10%

CSc1nncc(-c2ccc(N3CCOCC3)cc2)n1 [Example 40, 3-methylthio-5-(4'-morpholinophenyl)-1,2,4-triazine]
inhibition in vivo at 200 mg/kg [1]: 19% | responders at 100 mg/kg ([2]; 0.25 h, 15 Min.): 30% | responders at 100 mg/kg ([2]; 0.5 h, 30 Min.): 10%

CSc1nncc(-c2ccc(F)cc2F)n1 [Example 42, 3-methylthio-5-(2',4'-difluorophenyl)-1,2,4-triazine]
inhibition in vivo at 150 mg/kg ([1]; 150 mg/kg oral): 10% | responders at 100 mg/kg ([2]; 0.25 h, 15 Min.): 20% | responders at 100 mg/kg ([2]; 0.5 h, 30 Min.): 10%

CSc1nncc(-c2ccc(Br)cc2)n1 [Example 43, 3-methylthio-5-(4'-bromophenyl)-1,2,4-triazine]
inhibition in vivo at 200 mg/kg [1]: 20% | responders at 100 mg/kg ([2]; 0.25 h, 15 Min.): 10% | responders at 100 mg/kg ([2]; 0.5 h, 30 Min.): 10% | responders at 100 mg/kg ([2]; 1 h, 60 Min): 10%

COc1ccc(-c2cnnc(SC)n2)cc1 [Example 44, 3-methylthio-5-(4'-methoxyphenyl)-1,2,4-triazine]
inhibition in vivo at 200 mg/kg [1]: 18% | responders at 100 mg/kg ([2]; 0.25 h, 15 Min.): 10% | responders at 100 mg/kg ([2]; 0.5 h, 30 Min.): 10% | responders at 100 mg/kg ([2]; 1 h, 60 Min): 20%

COc1nnc(-c2ccccc2)c(-c2ccccc2)n1 [Example 48, 3-methoxy-5,6-diphenyl-1,2,4-triazine]
inhibition in vivo at 200 mg/kg [1]: 17% | CNS Activity [3, 4]: Muscle Relaxant

COc1ccc(-c2nnc(N(C)CCO)nc2-c2ccc(OC)cc2)cc1 [Example 50, 3-(N-methyl-N-(B-hydroxyethyl)amino)-5,6-bis-(4'-methoxyphenyl)-1,2,4-triazine]
inhibition in vivo at 200 mg/kg [1]: 67% | responders at 25 mg/kg ([2]; 0.25 h, 15 Min.): 30% | responders at 50 mg/kg ([2]; 0.25 h, 15 Min.): 60% | responders at 100 mg/kg ([2]; 0.25 h, 15 Min.): 70% | responders at 25 mg/kg ([2]; 0.5 h, 30 Min.): 40% | responders at 50 mg/kg ([2]; 0.5 h, 30 Min.): 50% | responders at 100 mg/kg ([2]; 0.5 h, 30 Min.): 100% | responders at 25 mg/kg ([2]; 1 h, 60 Min): 20% | responders at 50 mg/kg ([2]; 1 h, 60 Min): 40% | responders at 100 mg/kg ([2]; 1 h, 60 Min): 80%

C[C@@H]1CC[C@H](C)N1c1nnc(-c2ccccc2)c(-c2ccccc2)n1 [Example 52, 3-(cis-2',5'-dimethylpyrrolidyl)-5,6-diphenyl-1,2,4-triazine]
inhibition in vivo at 200 mg/kg [1]: 22% | responders at 100 mg/kg ([2]; 0.5 h, 30 Min.): 30% | responders at 100 mg/kg ([2]; 1 h, 60 Min): 10%

c1ccc(Oc2nnc(-c3ccccc3)c(-c3ccccc3)n2)cc1 [Example 53, 3-phenoxy-5,6-diphenyl-1,2,4-triazine]
inhibition in vivo at 200 mg/kg [1]: 7% | responders at 100 mg/kg ([2]; 0.25 h, 15 Min.): 20% | responders at 100 mg/kg ([2]; 1 h, 60 Min): 10%

CSc1nnc(-c2ccc(Cl)cc2)c(-c2ccc(Cl)cc2)n1 [Example 54, 3-methylthio-5,6-bis(4'-chlorophenyl)-1,2,4-triazine]
inhibition in vivo at 200 mg/kg [1]: 7% | responders at 100 mg/kg ([2]; 0.25 h, 15 Min.): 10%

CN(CCO)c1nnc(-c2ccccc2)c(-c2ccccc2)n1 [Example 55, 3-(N-methyl-N-B-hydroxyethylamino)-5,6-diphenyl-1,2,4-triazine]
inhibition in vivo at 200 mg/kg [1]: 23% | responders at 100 mg/kg ([2]; 0.25 h, 15 Min.): 20%

CCCCOc1nccnn1 [Example 65, 3-n-butoxy-1,2,4-triazine]
responders at 50 mg/kg ([2]; 0.5 h, 30 Min.): 10% | CNS Activity [3, 4]: Antidepressant

CN(CCO)c1nncc(-c2ccccc2)n1 [Example 73]
responders at 100 mg/kg ([2]; 0.25 h, 15 Min.): 10% | CNS Activity ([3]; 300,100 mg/kg intraperitoneal): Hypnotic

CCC(=O)NNc1nncc(-c2ccc(Cl)cc2)n1 [Example 108, 3-propionylhydrazino-5-(4'-chlorophenyl)-1,2,4-triazine]
inhibition in vivo at 100 mg/kg ([1]; 100 mg/kg oral): 40% | responders at 25 mg/kg ([2]; 0.25 h, 15 Min.): 30% | responders at 25 mg/kg ([2]; 0.5 h, 30 Min.): 50% | responders at 25 mg/kg ([2]; 1 h, 60 Min): 50%

From patent US4157392A, “Pharmacologically active substituted 1,2,4-triazines” (Diamond Shamrock Corporation, priority 1978, dated 1979)
